Experimental findings from patent publication US10441568B2, “Nitroxide radicals for the treatment of diseases of the respiratory tract” (priority 2015, dated 2019) are described below.

Data set [1] can be described thus: Nitroxide concentration measurement by EPR in mouse blood and tissue. It counts as in vivo. To be noted: mice. The procedure:
Electron paramagnetic resonance (EPR) spectroscopy was used to determine residual levels of nitroxide in mouse tissue. Blood samples or tissue samples were diluted with 0.5 ml phosphate buffer (40 mM, pH 7.4) or water, inserted into a flexible capillary placed in a quartz tube installed within the EPR spectrometer cavity and assayed for residual nitroxide. A similar procedure was used to determine the residual nitroxide in tissue homogenates of various organs, which were corrected for blood contamination spectrophotometrically by following the absorption of oxyhemoglobin at 400-600 nm. Measured EPR signals were compared to those of a nitroxide standard solution.
In order to determine total hydroxylamine and nitroxide concentrations, 2 mM K3Fe(CN)6 was added to samples in order to oxidize hydroxylamines to the respective nitroxide, and the nitroxide level was determined by EPR spectroscopy as described hereinabove.
Control and experimental groups contained 10 mice each. The effects of the nitroxides were investigated by feeding the mice ad libitum a diet of nitroxide-containing chow (1 weight percent) during both ovalbumin (OVA)-induced sensitization and challenging periods (days −2-19), during the sensitization period (days −2-11) or challenge period (days 13-19). Nitroxide-containing chow were prepared by dissolving 500 grams chow in a minimum volume of water containing 5 grams nitroxide and 5 grams commercial chicken soup powder, preparing the chow and drying it at 37° C. (animals were reluctant to eat nitroxide-containing chow until chicken soup powder was added).
3-CP was also administered using 3 daily intraperitoneal (IP) injections (200 μl, 0.15 M, ˜300 mg/kg) 0.5 hour prior to the challenge with OVA aerosol, or by nasal instillation (50 μl, 0.3 M, ˜150 mg/kg) twice a day 0.5 hour prior to the challenge with OVA aerosol and 6 hours later without exceeding its maximally tolerated dose, which has been previously established to be 300-500 mg/kg. Both 3-CP and TPL were non-toxic when administered orally or via IP injection to untreated OVA-challenged mice for 22 days.

Data set [2] relates to ovalbumin-induced murine model of asthma. Description: Lung resistance / airway hyper-responsiveness to methacholine in OVA asthma model. It counts as in vivo, BALB/c mice. On the procedure: All experimental procedures were carried out in accordance with the NIH Guidelines for the Care and Use of Laboratory Animals. Specific pathogen-free (SPF) male BALB/c mice (6-7 weeks of age, 18-22 grams), routinely screened serologically for relevant respiratory pathogens, were maintained in an animal housing facility for 1 week before use and given access to food and water ad libitum. Animals were randomly assigned to the indicated experimental groups, and sensitized with two intraperitoneal (IP) injections (20 μg ovalbumin (OVA) emulsified in 2 mg aluminum hydroxide (an adjuvant) in 200 μl phosphate buffer saline (PBS), pH 7.4), on days 1 and 10.
After another week, the animals were challenged by exposure to ovalbumin (OVA) aerosol (1%, w/v, in PBS) for 30 minutes each day on days 17, 18 and 19, in order to elicit an inflammatory reaction in the lungs characterized by airway hyper-responsiveness (AHR), an influx of inflammatory cells (particularly eosinophils), and increased pulmonary levels of various cytokines and transforming growth factors, protein nitration and lipid peroxidation.
The features of allergic inflammation typically reached their peak a day or two after the final exposure. Mice were then subjected to one of the following treatments: (i) sham-sensitization plus challenge with PBS; (ii) positive control-sensitization plus challenge with OVA; (iii) sensitization plus challenge with OVA and various indicated treatments (e.g., with nitroxide or dexamethasone), including different modes (oral, IP, intranasal, inhalation), time windows (sensitization stage, challenge stage, both stages and after the last challenge), and doses of nitroxide administration.
One day after the final challenge, respiratory activity and airway hyper-responsiveness (AHR) of experimental animals were evaluated. Whole body plethysmographs for enhanced pause (Penh) measurements are often used for assessment of AHR. However, critics have questioned the validity of Penh measurements, which supposedly measure airway obstruction of live non-sedated mice, stating that it is likely to measure the distress of the animal rather than actual obstruction. […] In brief, mice were sedated with an intraperitoneal (IP) injection of xylazine hydrochloride and anaesthetized with IP injection of pentobarbital. Subsequently, the animals were tracheostomized using an 18 gauge cannula, ventilated with a FlexiVent™ apparatus (SCIREQ), and muscle paralysis was induced with pancuronium bromide. The mice were ventilated in a quasi-sinusoidal fashion with the following settings: a tidal volume of 10 ml/kg, maximum inflation pressure of […] (30 cm H2O), a positive end expiratory pressure (PEEP) of 3 millibar and a frequency of 150 per minute. Following an equilibration period of 3 minutes of tidal ventilation, two lung inflations to a transrespiratory pressure of 2.5 millibar were performed and baseline measurements were taken. Airway hyper-responsiveness (AHR) was determined by aerosolizing increasing concentrations of methacholine. After baseline determination of airway resistance, mice were challenged with 0 to 64 mg/mL methacholine nebulized directly into the ventilatory circuit using an AeroNeb™ Lab nebulizer system (SCIREQ). Two models of respiratory mechanics were used to assess lung resistance: a linear 1st-order single compartment model and a constant-phase model. All data points were collected with FlexiVent™ software (SCIREQ). […]

Setting [3] is: nasal instillation (50 μL, 0.3 M), FIG. 2.
The mark [4] stands for this setting: oral administration (1 weight percent nitroxide in chow), FIG. 1.
Setting [5] is: stated after the oral administration data.
Setting [6] is: oral, 1 weight percent in chow, FIG. 3.

As for `CC1(C)CC(C(N)=O)C(C)(C)N1[O]` (centres unmarked) [3-CP, 3-Carbamoyl-2,2,5,5-tetramethyl-pyrrolidin-1-oxyl], the “residual concentration of the respective hydroxylamine compared with the nitroxide” value in data set [1] (data not shown) is reported as “higher than those of the therapeutically active nitroxide free radical”. In addition, in data set [1] (setting [3]), the “absolute concentration in lung tissue relative to blood” value is “about twice the concentration in the blood”; the “half-life of reduction/clearance from blood and lung tissue” value is listed as “about 80 minutes”; the “time course of residual concentration in blood and lung tissue” value is “decreased exponentially with time”. Moreover, in data set [1] (setting [4]), the “blood concentration, 3-CP compared with TPL” value was “higher than TPL blood concentrations” and the “residual concentration of nitroxide in blood” value was “detectable levels”. Besides, in data set [1] (setting [5]), the “residual concentration in the lungs compared with other organs” value was “significantly higher than in the heart, spleen, liver, kidney and brain”; the “residual concentration in the lungs relative to that in the blood” value was “about 65%”. In data set [2] (oral 1 weight percent in chow during sensitization and challenge periods, FIG. 6), the “lung resistance, oral 3-CP in both periods compared with other regimens” value is given as “more effective than IP injection or intranasal instillation of 3-CP, oral administration of 3-CP during the sensitization period or challenge period alone, or treatment with dexamethasone”. In data set [2] (setting [6]), the “effect on methacholine-induced increase in lung resistance” value is “suppressed methacholine-induced increase in lung resistance” and the “lung resistance suppression, 3-CP compared with TPL” value is reported as “considerably more effective than TPL”.
